Assays:
ALPK1 [1] = target: T1, ALPK1 (Homo sapiens, UniProt Q96QP1); test: IL-8 secretion by HEK293 cells (IL-8 ELISA) as indication of ALPK1 activation; assay type: cell-based; settings: HEK293 cells treated 4 hours, FIG. 6, Table 2A
T1 construct: endogenous in cells; host or cells: HEK293 (A1); HEK293 stably expressing an NF-kB-alkaline phosphatase reporter (A2)
Protocol: HEK293 cells were treated with H1b-ADP derivatives (A1, A2, A3, and A4) or with Compound 28 for 4 hours followed by analysis of IL-8 secretion using an IL-8 enzyme linked immunoassay (ELISA). IL-8 secretion is an indication of ALPK1 activation. The EC50 of each compound was determined using GraphPad Prism.

ALPK1 [2] = target: T1, ALPK1; test: NF-kB promoter driven alkaline phosphatase reporter in HEK293 cells (pNPP assay); assay type: cell-based; settings: HEK293-NFkB-AP reporter cells treated 7 hours
Protocol: NF-kB activation was assayed using HEK293 cells stably expressing an NF-kB reporter construct comprising an NF-kB promoter driving expression of alkaline phosphatase (AP). In this system, activation of NF-kB promoter activity drives the expression of AP which is detected using a chromogenic substrate, para-nitrophenyl phosphate (pNPP).
To assess the ALPK1 agonist activity of test compounds, the HEK293 cells were seeded in 96-well plates and allowed to attach overnight. Cells were then exposed to graded concentrations of compounds A1, A2, A3, A4, A18, A26, A27, A28, and A30. Compound 28 was included as a reference. Following treatment, cell culture supernatants were collected and analyzed for alkaline phosphatase activity using the pNPP assay. The results are shown in FIGS. 7A-7B and Table 2B-C below. The EC50 for each compound was determined using GraphPad Prism.

T1 sequence (Q96QP1 whole entry): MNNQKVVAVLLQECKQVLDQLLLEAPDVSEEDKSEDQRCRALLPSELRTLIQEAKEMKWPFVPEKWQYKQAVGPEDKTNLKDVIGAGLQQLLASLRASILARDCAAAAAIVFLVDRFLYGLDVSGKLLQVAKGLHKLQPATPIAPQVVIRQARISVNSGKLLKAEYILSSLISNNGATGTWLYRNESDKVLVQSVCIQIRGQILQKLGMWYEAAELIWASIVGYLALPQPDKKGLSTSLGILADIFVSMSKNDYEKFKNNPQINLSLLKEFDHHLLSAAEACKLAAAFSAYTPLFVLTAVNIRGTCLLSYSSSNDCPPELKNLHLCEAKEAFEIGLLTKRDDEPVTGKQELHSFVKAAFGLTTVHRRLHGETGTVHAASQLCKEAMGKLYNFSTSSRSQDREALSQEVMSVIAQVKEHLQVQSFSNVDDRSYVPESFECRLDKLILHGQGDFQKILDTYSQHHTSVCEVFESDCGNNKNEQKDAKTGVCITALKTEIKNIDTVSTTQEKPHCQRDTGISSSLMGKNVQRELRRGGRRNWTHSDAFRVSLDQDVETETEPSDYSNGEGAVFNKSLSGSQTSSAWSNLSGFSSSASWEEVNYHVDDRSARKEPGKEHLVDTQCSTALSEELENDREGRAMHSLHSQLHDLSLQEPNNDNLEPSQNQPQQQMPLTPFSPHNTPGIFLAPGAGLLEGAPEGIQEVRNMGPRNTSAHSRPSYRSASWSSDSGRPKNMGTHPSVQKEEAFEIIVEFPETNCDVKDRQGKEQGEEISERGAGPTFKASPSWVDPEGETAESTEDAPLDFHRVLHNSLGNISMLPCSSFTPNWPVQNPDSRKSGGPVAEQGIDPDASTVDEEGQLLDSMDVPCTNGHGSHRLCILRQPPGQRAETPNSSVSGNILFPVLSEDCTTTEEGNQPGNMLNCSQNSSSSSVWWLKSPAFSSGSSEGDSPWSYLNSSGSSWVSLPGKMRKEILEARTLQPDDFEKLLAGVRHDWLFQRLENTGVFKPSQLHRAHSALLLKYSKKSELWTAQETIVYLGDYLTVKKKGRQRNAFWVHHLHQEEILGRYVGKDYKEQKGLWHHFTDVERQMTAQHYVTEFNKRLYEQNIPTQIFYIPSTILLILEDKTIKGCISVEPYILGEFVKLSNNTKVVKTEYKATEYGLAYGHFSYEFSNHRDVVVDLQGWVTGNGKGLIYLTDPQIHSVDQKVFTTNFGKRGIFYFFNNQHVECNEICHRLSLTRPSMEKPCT

| SMILES | EC50 (ALPK1 [1]) [nM] | EC50 (ALPK1 [2]; FIG. 7A, Table 2B) [nM] | EC50 (ALPK1 [2]; FIG. 7B, Table 2C) [nM] |
| --- | --- | --- | --- |
| CCCCCCCCCCCC(=O)OC[C@H](F)C1O[C@@H](OP(=O)(O)OP(O)(=S)OC[C@H]2O[C@@H](n3cnc4c(N)ncnc43)C(O)C2O)C(OC(C)=O)C(OC(C)=O)[C@@H]1OC(C)=O (stereo in doubt) [Compound A2, 2S,3S,4S,5S,6S)-2-(((((((2R,3S,4R,5R)-5-(6-amino-9H-purin-9-yl)-3,4-dihydroxytetrahydrofuran-2-yl)methoxy)(hydroxy)phosphorothioyl)oxy)(hydroxy)phosphoryl)oxy)-6-((S)-2-(dodecanoyloxy)-1-fluoroethyl)tetrahydro-2H-pyran-3,4,5-triyl triacetate] | 7.1 | 11.9 | – |
| CCCCCCCCCCCCCCCCCC(=O)OC[C@H](F)[C@H]1O[C@@H](OP(=O)(O)OP(O)(=S)OC[C@H]2O[C@@H](n3cnc4c(N)ncnc43)[C@H](O)[C@@H]2O)[C@@H](OC(C)=O)[C@@H](OC(C)=O)[C@@H]1OC(C)=O (stereo partly drawn) [Compound A1, (2S,3S,4S,5S,6S)-2-(((((((2R,3S,4R,5R)-5-(6-amino-9H-purin-9-yl)-3,4-dihydroxytetrahydrofuran-2-yl)methoxy)(hydroxy)phosphorothioyl)oxy)(hydroxy)phosphoryl)oxy)-6-((S)-1-fluoro-2-(stearoyloxy)ethyl)tetrahydro-2H-pyran-3,4,5-triyl triacetate] | 3.1 | 11 | – |
| CCCCCCCCCCCCCC(=O)OC[C@H](F)C1O[C@@H](OP(=O)(O)OP(O)(=S)OC[C@H]2O[C@@H](n3cnc4c(N)ncnc43)C(O)C2O)C(OC(C)=O)C(OC(C)=O)[C@@H]1OC(C)=O (stereo partly drawn) [Compound A3, (2S,3S,4S,5S,6S)-2-(((((((2R,3S,4R,5R)-5-(6-amino-9H-purin-9-yl)-3,4-dihydroxytetrahydrofuran-2-yl)methoxy)(hydroxy)phosphorothioyl)oxy)(hydroxy)phosphoryl)oxy)-6-((S)-1-fluoro-2-(tetradecanoyloxy)ethyl)tetrahydro-2H-pyran-3,4,5-triyl triacetate] | 2 | 3.9 | – |
| CCCCCCCCC(=O)OC[C@H](F)C1O[C@@H](OP(=O)(O)OP(O)(=S)OC[C@H]2O[C@@H](n3cnc4c(N)ncnc43)C(O)C2O)C(OC(C)=O)C(OC(C)=O)[C@@H]1OC(C)=O (stereo partly drawn) [Compound A4, (2S,3S,4S,5S,6S)-2-(((((((2R,3S,4R,5R)-5-(6-amino-9H-purin-9-yl)-3,4-dihydroxytetrahydrofuran-2-yl)methoxy)(hydroxy)phosphorothioyl)oxy)(hydroxy)phosphoryl)oxy)-6-((S)-1-fluoro-2-(nonanoyloxy)ethyl)tetrahydro-2H-pyran-3,4,5-triyl triacetate] | 19.2 | 19.1 | – |
| CC(=O)OC[C@H](F)[C@H]1O[C@@H](OP(=O)(O)OP(O)(=S)OC[C@H]2O[C@@H](n3ncc4c(N)ncnc43)[C@H](O)[C@@H]2O)[C@@H](OC(C)=O)[C@@H](OC(C)=O)[C@@H]1OC(C)=O (stereo partly drawn) [Compound A26, (2S,3S,4S,5S,6S)-2-((S)-2-acetoxy-1-fluoroethyl)-6-(((((((2R,3S,4R,5R)-5-(4-amino-1H-pyrazolo[3,4-d]pyrimidin-1-yl)-3,4-dihydroxytetrahydrofuran-2-yl)methoxy)(hydroxy)phosphorothioyl)oxy)(hydroxy)phosphoryl)oxy)tetrahydro-2H-pyran-3,4,5-triyl triacetate] | – | – | 10100 |
| CC(=O)OC[C@H](F)C1O[C@@H](OP(=O)(O)OP(O)(=S)OC[C@H]2O[C@@H](n3cnc4c(NC(=O)c5ccccc5)ncnc43)C(O)C2O)C(OC(C)=O)C(OC(C)=O)[C@@H]1OC(C)=O (stereo partly drawn) [Compound A27, (2S,3S,4S,5S,6S)-2-((S)-2-acetoxy-1-fluoroethyl)-6-(((((((2R,3S,4R,5R)-5-(6-benzamido-9H-purin-9-yl)-3,4-dihydroxytetrahydrofuran-2-yl)methoxy)(hydroxy)phosphorothioyl)oxy)(hydroxy)phosphoryl)oxy)tetrahydro-2H-pyran-3,4,5-triyl triacetate] | – | – | 37.8 |
| CC(=O)OC[C@H](F)[C@H]1O[C@@H](OP(=O)(O)OP(O)(=S)OC[C@H]2O[C@@H](c3coc4c(N)ncnc34)[C@H](O)[C@@H]2O)[C@@H](OC(C)=O)[C@@H](OC(C)=O)[C@@H]1OC(C)=O (stereo partly drawn) [Compound A28, (2S,3S,4S,5S,6S)-2-((S)-2-acetoxy-1-fluoroethyl)-6-(((((((2R,3S,4R,5S)-5-(4-aminofuro[3,2-d]pyrimidin-7-yl)-3,4-dihydroxytetrahydrofuran-2-yl)methoxy)(hydroxy)phosphorothioyl)oxy)(hydroxy)phosphoryl)oxy)tetrahydro-2H-pyran-3,4,5-triyl triacetate] | – | – | 3.9 |
| CC(=O)OC[C@H](F)[C@H]1O[C@@H](OP(=O)(O)OP(O)(=S)OC[C@H]2O[C@@H](c3csc(C(N)=O)c3N)[C@H](O)[C@@H]2O)[C@@H](OC(C)=O)[C@@H](OC(C)=O)[C@@H]1OC(C)=O (stereo partly drawn) [Compound A30, (2S,3S,4S,5S,6S)-2-((S)-2-acetoxy-1-fluoroethyl)-6-(((((((2R,3S,4R,5S)-5-(4-amino-5-carbamoylthiophen-3-yl)-3,4-dihydroxytetrahydrofuran-2-yl)methoxy)(hydroxy)phosphorothioyl)oxy)(hydroxy)phosphoryl)oxy)tetrahydro-2H-pyran-3,4,5-triyl triacetate] | – | – | 42.3 |

From patent publication US20220177510A1, “DERIVATIVES OF GYLCERO-MANNO-HEPTOSE ADP FOR USE IN MODULATING IMMUNE RESPONSE” (priority 2019, published 2022)
